The results in this text go back to patent publication US8765940B2 (priority 2009, dated 2014).

The target in the test is PI3Kδ (Homo sapiens (Human), UniProt O00329). The test is classed as biochemical. Particulars: PI3Kδ Alphascreen assay. A general note: In Alpha technology, singlet oxygen from a donor bead excites a nearby acceptor bead.
Chain of PI3Kδ (O00329 whole entry): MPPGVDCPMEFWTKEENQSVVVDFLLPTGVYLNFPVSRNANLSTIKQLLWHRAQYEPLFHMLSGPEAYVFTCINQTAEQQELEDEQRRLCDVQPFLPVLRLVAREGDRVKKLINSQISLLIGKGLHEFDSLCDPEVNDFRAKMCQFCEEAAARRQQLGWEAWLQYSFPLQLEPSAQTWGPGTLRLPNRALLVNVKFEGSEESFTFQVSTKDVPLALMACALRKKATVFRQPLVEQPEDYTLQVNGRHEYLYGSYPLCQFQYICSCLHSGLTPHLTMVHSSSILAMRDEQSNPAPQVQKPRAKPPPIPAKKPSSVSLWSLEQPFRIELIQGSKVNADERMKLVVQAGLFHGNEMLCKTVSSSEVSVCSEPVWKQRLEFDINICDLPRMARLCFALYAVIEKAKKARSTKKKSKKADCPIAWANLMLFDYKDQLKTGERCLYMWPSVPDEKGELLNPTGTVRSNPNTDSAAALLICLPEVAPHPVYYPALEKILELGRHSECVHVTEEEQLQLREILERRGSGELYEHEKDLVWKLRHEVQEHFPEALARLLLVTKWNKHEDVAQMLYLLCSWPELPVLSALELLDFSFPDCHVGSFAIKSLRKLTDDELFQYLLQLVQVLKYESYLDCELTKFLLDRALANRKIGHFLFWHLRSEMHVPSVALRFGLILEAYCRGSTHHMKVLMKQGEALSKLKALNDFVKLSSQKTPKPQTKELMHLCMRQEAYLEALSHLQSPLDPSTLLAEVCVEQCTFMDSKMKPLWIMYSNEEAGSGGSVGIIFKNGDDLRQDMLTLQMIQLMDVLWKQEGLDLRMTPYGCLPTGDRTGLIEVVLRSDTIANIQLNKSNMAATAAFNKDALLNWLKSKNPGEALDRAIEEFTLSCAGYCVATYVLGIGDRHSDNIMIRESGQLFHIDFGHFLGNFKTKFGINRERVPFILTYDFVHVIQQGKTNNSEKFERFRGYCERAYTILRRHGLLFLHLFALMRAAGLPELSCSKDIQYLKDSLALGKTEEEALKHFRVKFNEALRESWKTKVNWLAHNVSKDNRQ
Chain of PI3Kδ (P27986 whole entry partner): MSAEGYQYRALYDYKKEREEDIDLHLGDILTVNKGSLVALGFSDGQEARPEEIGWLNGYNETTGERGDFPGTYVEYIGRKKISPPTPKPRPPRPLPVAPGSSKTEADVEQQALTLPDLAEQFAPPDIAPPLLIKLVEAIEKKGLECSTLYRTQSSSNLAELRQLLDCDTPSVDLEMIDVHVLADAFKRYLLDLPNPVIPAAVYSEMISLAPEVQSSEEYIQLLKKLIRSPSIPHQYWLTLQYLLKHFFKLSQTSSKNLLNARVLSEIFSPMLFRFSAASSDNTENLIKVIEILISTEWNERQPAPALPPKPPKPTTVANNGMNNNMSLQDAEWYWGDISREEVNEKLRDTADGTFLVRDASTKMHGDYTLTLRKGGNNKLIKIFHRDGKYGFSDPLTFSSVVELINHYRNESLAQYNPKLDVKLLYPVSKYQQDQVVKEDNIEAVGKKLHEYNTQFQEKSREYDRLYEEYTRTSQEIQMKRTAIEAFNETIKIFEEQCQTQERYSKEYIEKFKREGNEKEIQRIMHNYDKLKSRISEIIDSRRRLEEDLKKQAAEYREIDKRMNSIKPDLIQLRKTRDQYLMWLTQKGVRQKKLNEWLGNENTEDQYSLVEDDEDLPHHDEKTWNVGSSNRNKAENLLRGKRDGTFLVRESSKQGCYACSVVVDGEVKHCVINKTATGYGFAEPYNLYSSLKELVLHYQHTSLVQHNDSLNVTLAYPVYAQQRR
Protocol: A PI3K Alphascreen® assay (PerkinElmer, Waltham, Mass.) was used to measure the activity of a panel of four phosphoinositide 3-kinases: PI3Kα, PI3Kβ, PI3Kγ, and PI3Kδ. Enzyme reaction buffer was prepared using sterile water (Baxter, Deerfield, Ill.) and 50 mM Tris HCl pH 7, 14 mM MgCl2, 2 mM sodium cholate, and 100 mM NaCl. 2 mM DTT was added fresh the day of the experiment. The Alphascreen buffer was made using sterile water and 10 mM Tris HCl pH 7.5, 150 mM NaCl, 0.10% Tween 20, and 30 mM EDTA. 1 mM DTT was added fresh the day of the experiment. Compound source plates used for this assay were 384-well Greiner clear polypropylene plates containing test compounds at 5 mM and diluted 1:2 over 22 concentrations. Columns 23 and 24 contained only DMSO as these wells comprised the positive and negative controls, respectively. Source plates were replicated by transferring 0.5 uL per well into 384-well Optiplates (PerkinElmer, Waltham, Mass.).
Each PI3K isoform was diluted in enzyme reaction buffer to 2× working stocks. PI3Kα was diluted to 1.6 nM, PI3Kβ was diluted to 0.8 nM, PI3Kγ was diluted to 15 nM, and PI3Kδ was diluted to 1.6 nM. PI(4,5)P2 (Echelon Biosciences, Salt Lake City, Utah) was diluted to 10 μM and ATP was diluted to 20 μM. This 2× stock was used in the assays for PI3Kα and PI3Kβ. For assay of PI3Kγ and PI3Kδ, PI(4,5)P2 was diluted to 10 μM and ATP was diluted to 8 μM to prepare a similar 2× working stock. Alphascreen reaction solutions were made using beads from the anti-GST Alphascreen kit (PerkinElmer, Waltham, Mass.). Two 4× working stocks of the Alphascreen reagents were made in Alphascreen reaction buffer. In one stock, biotinylated-IP4 (Echelon Biosciences, Salt Lake City, Utah) was diluted to 40 nM and streptavadin-donor beads were diluted to 80 μg/mL. In the second stock, PIP3-binding protein (Echelon Biosciences, Salt Lake City, Utah) was diluted to 40 nM and anti-GST-acceptor beads were diluted to 80 μg/mL.
Using a 384-well Multidrop (Titertek, Huntsville, Ala.), 10 μL/well of 2× enzyme stock was added to columns 1-24 of the assay plates for each isoform. 10 μL/well of the appropriate substrate 2× stock (containing 20 μM ATP for the PI3Kα and β assays and containing 8 μM ATP for the PI3Kγ and δ assays) was then added to Columns 1-24 of all plates. Plates were then incubated at room temperature for 20 minutes. In the dark, 10 μL/well of the donor bead solution was added to columns 1-24 of the plates to quench the enzyme reaction. The plates were incubated at room temperature for 30 minutes. Still in the dark, 10 μL/well of the acceptor bead solution was added to columns 1-24 of the plates. The plates were then incubated in the dark for 1.5 hours. The plates were read on an Envision multimode Plate Reader (PerkinElmer, Waltham, Mass.) using a 680 nm excitation filter and a 520-620 nm emission filter.
Consider `Cc1c(-c2cc(F)cc(F)c2)nc2cnccc2c1N1CC(C)(C)c2ncc(N3CCOCC3)cc21` [2-(3,5-difluorophenyl)-4-(3,3-dimethyl-6-(4-morpholinyl)-2,3-dihydro-1H-pyrrolo[3,2-b]pyridin-1-yl)-3-methyl-1,7-naphthyridine], for which the Ki (in general, a dissociation constant, usually derived from enzyme kinetics or from competition with a known ligand) was determined as 2.36 nM. In other words, the single-digit nanomolar range. To `Cc1nc2c(C(F)(F)F)cccc2c(N2CC(C)(C)c3ccc(N4CCOCC4)cc32)c1C` [4-(3,3-dimethyl-6-(4-morpholinyl)-2,3-dihydro-1H-indol-1-yl)-2,3-dimethyl-8-(trifluoromethyl)quinoline] belongs 516 nM; to `Cc1ncccc1-c1nc2cc(F)ccc2c(N2CC(C)(C)c3ncc(N4CCOCC4)cc32)c1C` [4-(3,3-dimethyl-6-(4-morpholinyl)-2,3-dihydro-1H-pyrrolo[3,2-b]pyridin-1-yl)-7-fluoro-3-methyl-2-(2-methyl-3-pyridinyl)quinoline], 4.07 nM; to `Cc1c(-c2cc(F)cc(F)c2)nc2ncccc2c1N1CC2(CCOCC2)c2ncc(N3CCOCC3)cc21` [1′-(2-(3,5-difluorophenyl)-3-methyl-1,8-naphthyridin-4-yl)-6′-(4-morpholinyl)-1′,2,2′,3,5,6-hexahydrospiro[pyran-4,3′-pyrrolo[3,2-b]pyridine]], 28.2 nM.

Turning to `Cc1c(N2CCNCC2)nc2cc(F)cc(F)c2c1N1CC2(CCOCC2)c2ncc(N3CCOCC3)cc21` [1′-(5,7-difluoro-3-methyl-2-(1-piperazinyl)-4-quinolinyl)-6′-(4-morpholinyl)-1′,2,2′,3,5,6-hexahydrospiro[pyran-4,3′-pyrrolo[3,2-b]pyridine]], the Ki was 1.37 nM.

In the case of `Cc1c(-c2cccnc2)nc2cc(F)ccc2c1N1CC2(CCOCC2)c2ccc(N3CCOCC3)cc21` [1-(7-fluoro-3-methyl-2-(3-pyridinyl)-4-quinolinyl)-6-(4-morpholinyl)-1,2,2′,3′,5′,6′-hexahydrospiro[indole-3,4′-pyran]], the Ki worked out at 47.5 nM. Molecule `COC(=O)N1CCN(c2nc3cc(F)cc(F)c3c(N3CC4(CCOCC4)c4ncc(N5CCOCC5)cc43)c2C)CC1` [methyl 4-(5,7-difluoro-3-methyl-4-(6′-(4-morpholinyl)-2,3,5,6-tetrahydrospiro[pyran-4,3′-pyrrolo[3,2-b]pyridin]-1′(2′H)-yl)-2-quinolinyl)-1-piperazinecarboxylate] yielded a Ki of 1.49 nM.

The molecule `Cc1c(-c2ccccc2S(C)(=O)=O)nc2cc(F)ccc2c1N1CC2(CCOCC2)c2ccc(N3CCOCC3)cc21` [1-(7-fluoro-3-methyl-2-(2-(methylsulfonyl)phenyl)-4-quinolinyl)-6-(4-morpholinyl)-1,2,2′,3′,5′,6′-hexahydrospiro[indole-3,4′-pyran]] registered a Ki of 10.2 nM. This Ki is about 6.8-fold higher than that of the molecule before.

`CC1(C)CN(c2c(C#N)c(-c3ccccn3)nc3cc(F)ccc23)c2cc(N3CCOCC3)cnc21` [4-(3,3-dimethyl-6-(4-morpholinyl)-2,3-dihydro-1H-pyrrolo[3,2-b]pyridin-1-yl)-7-fluoro-2-(2-pyridinyl)-3-quinolinecarbonitrile]: the affinity, expressed as Ki, was 437 nM.

As to `Cc1c(N2CC(C)(C)CC2=O)nc2cc(F)cc(F)c2c1N1CC2(CCOCC2)c2ncc(N3CCOCC3)cc21` [1-(5,7-difluoro-3-methyl-4-(6′-(4-morpholinyl)-2,3,5,6-tetrahydrospiro[pyran-4,3′-pyrrolo[3,2-b]pyridin]-1′(2′H)-yl)-2-quinolinyl)-4,4-dimethyl-2-pyrrolidinone], the Ki was 2.24 nM. Against the preceding molecule, the Ki is about 200-fold lower. To `Cc1c(-c2ccccn2)nc2cc(F)ccc2c1N1CC(CO)(CO)c2ccc(N3CCOCC3)cc21` [(1-(7-fluoro-3-methyl-2-(2-pyridinyl)-4-quinolinyl)-6-(4-morpholinyl)-2,3-dihydro-1H-indole-3,3-diyl)dimethanol] belongs 154 nM.

`Cc1nc2ccc(Cl)cc2c(N2CC(C)(C)c3ccc(-c4cn[nH]c4)cc32)c1C` [6-chloro-4-(3,3-dimethyl-6-(1H-pyrazol-4-yl)-2,3-dihydro-1H-indol-1-yl)-2,3-dimethylquinoline] returned a Ki of 9530 nM. As to `Cc1ccnc(-c2nc3ncccc3c(N3CC(C)(C)c4nc(Cl)c(N5CCOCC5)cc43)c2C)c1` [4-(5-chloro-3,3-dimethyl-6-(4-morpholinyl)-2,3-dihydro-1H-pyrrolo[3,2-b]pyridin-1-yl)-3-methyl-2-(4-methyl-2-pyridinyl)-1,8-naphthyridine], affinity was put at a Ki of 68.7 nM. Take `COc1cc(-c2nc3cc(F)cc(F)c3c(N3CC4(CCOCC4)c4ncc(N5CCOCC5)cc43)c2C)ccn1` [1′-(5,7-difluoro-2-(2-methoxy-4-pyridinyl)-3-methyl-4-quinolinyl)-6′-(4-morpholinyl)-1′,2,2′,3,5,6-hexahydrospiro[pyran-4,3′-pyrrolo[3,2-b]pyridine]]: the affinity, expressed as Ki, was 6.89 nM. This Ki lies about 10-fold lower than the previous one. To `Cc1c(-c2ccccc2)nc2ccccc2c1N1CC(C)(C)c2ccc(N3CCOCC3)cc21` [4-(3,3-dimethyl-6-(4-morpholinyl)-2,3-dihydro-1H-indol-1-yl)-3-methyl-2-phenylquinoline] belongs 85.4 nM; to `Cc1ncccc1-c1nc2cc(F)ccc2c(N2CC3(CCOCC3)c3ccc(N4CCOCC4)cc32)c1C` [1-(7-fluoro-3-methyl-2-(2-methyl-3-pyridinyl)-4-quinolinyl)-6-(4-morpholinyl)-1,2,2′,3′,5′,6′-hexahydrospiro[indole-3,4′-pyran]], 14.5 nM; to `Cc1c(-c2ccccn2)nc2cc(F)ccc2c1N1CC2(CCOCC2)c2nc(N)c(N3CCOCC3)cc21` [1′-(7-fluoro-3-methyl-2-(2-pyridinyl)-4-quinolinyl)-6′-(4-morpholinyl)-1′,2,2′,3,5,6-hexahydrospiro[pyran-4,3′-pyrrolo[3,2-b]pyridin]-5′-amine], 29 nM. For the molecule `Cc1c(N2CCCCC2=O)nc2cc(F)cc(F)c2c1N1CC2(CCOCC2)c2ncc(N3CCOCC3)cc21` [1-(5,7-difluoro-3-methyl-4-(6′-(4-morpholinyl)-2,3,5,6-tetrahydrospiro[pyran-4,3′-pyrrolo[3,2-b]pyridin]-1′(2′H)-yl)-2-quinolinyl)-2-piperidinone], the Ki is 5.51 nM.

Regarding `Cc1c(-c2ccccn2)nc2cc(F)ccc2c1N1CC2(CCS(=O)(=O)CC2)c2ccc(N3CCOCC3)cc21` [1-(7-fluoro-3-methyl-2-(2-pyridinyl)-4-quinolinyl)-6-(4-morpholinyl)-1,2,2′,3′,5′,6′-hexahydrospiro[indole-3,4′-thiopyran]-1′,1′-dioxide], the affinity, expressed as Ki, was 64.4 nM. To `Cc1cnc2ccccc2c1N1CC(C)(C)c2ccc(N3CCOCC3)cc21` [4-(3,3-dimethyl-6-(4-morpholinyl)-2,3-dihydro-1H-indol-1-yl)-3-methylquinoline] belongs 654 nM. To `Cc1nc2ccc(Cl)cc2c(-n2cc(C#N)c3ccc(-c4cn[nH]c4)cc32)c1C` [1-(6-chloro-2,3-dimethyl-4-quinolinyl)-6-(1H-pyrazol-4-yl)-1H-indole-3-carbonitrile] belongs 2110 nM; to `Cc1c(-c2ccccn2)nc2cc(F)ccc2c1N1CC(C)(C)c2nc(Cl)c(N3CCOCC3)cc21` [4-(5-chloro-3,3-dimethyl-6-(4-morpholinyl)-2,3-dihydro-1H-pyrrolo[3,2-b]pyridin-1-yl)-7-fluoro-3-methyl-2-(2-pyridinyl)quinoline], 3.16 nM. `Cc1c(-c2ccccn2)nc2cc(F)ccc2c1N1CC(C)(C)c2nc(Br)c(N3CCOCC3)cc21` [4-(5-bromo-3,3-dimethyl-6-(4-morpholinyl)-2,3-dihydro-1H-pyrrolo[3,2-b]pyridin-1-yl)-7-fluoro-3-methyl-2-(2-pyridinyl)quinoline]: the Ki came to 33.3 nM. Against the preceding molecule, the Ki is about 11-fold higher. In the case of `Cc1c(N2CCC2=O)nc2cc(F)cc(F)c2c1N1CC2(CCOCC2)c2ncc(N3CCOCC3)cc21` [1-(5,7-difluoro-3-methyl-4-(6′-(4-morpholinyl)-2,3,5,6-tetrahydrospiro[pyran-4,3′-pyrrolo[3,2-b]pyridin]-1′(2′H)-yl)-2-quinolinyl)-2-azetidinone], the Ki turned out to be 2.3 nM. To `Cc1c(-c2ccccc2F)nc2cccc(Cl)c2c1N1CC(C)(C)c2ccc(N3CCOCC3)cc21` [5-chloro-4-(3,3-dimethyl-6-(4-morpholinyl)-2,3-dihydro-1H-indol-1-yl)-2-(2-fluorophenyl)-3-methylquinoline] belongs 890 nM; to `Cc1c(-n2ccccc2=O)nc2cc(F)cc(F)c2c1N1CC2(CCOCC2)c2ccc(N3CCOCC3)cc21` [1-(5,7-difluoro-3-methyl-4-(6-(4-morpholinyl)-2′,3′,5′,6′-tetrahydrospiro[indole-3,4′-pyran]-1(2H)-yl)-2-quinolinyl)-2(1H)-pyridinone], 4.64 nM.

Take `Cc1c(-c2ccccn2)nc2cc(F)cc(F)c2c1N1CC2(CCOCC2)c2ncc(N3CCOCC3)cc21` [1′-(5,7-difluoro-3-methyl-2-(2-pyridinyl)-4-quinolinyl)-6′-(4-morpholinyl)-1′,2,2′,3,5,6-hexahydrospiro[pyran-4,3′-pyrrolo[3,2-b]pyridine]]: the Ki worked out at 9.44 nM.

For `Cc1c(-c2cncc(F)c2)nc2cnccc2c1N1CC(C)(C)c2ncc(N3CCOCC3)cc21` [4-(3,3-dimethyl-6-(4-morpholinyl)-2,3-dihydro-1H-pyrrolo[3,2-b]pyridin-1-yl)-2-(5-fluoro-3-pyridinyl)-3-methyl-1,7-naphthyridine], the Ki amounted to 7.75 nM. In turn, `Cc1c(-c2ccccc2F)nc2cccc(F)c2c1N1CCS(=O)(=O)c2ccc(N3CCOCC3)cc21` [4-(5-fluoro-2-(2-fluorophenyl)-3-methyl-4-quinolinyl)-6-(4-morpholinyl)-3,4-dihydro-2H-1,4-benzothiazine 1,1-dioxide] had a Ki of 23.5 nM. Compared with the last molecule, the Ki is about 3-fold higher. As to `Cc1nc2ccc(Cl)cc2c(N2CCOc3ccc(N4CCOCC4)cc32)c1C` [4-(6-chloro-2,3-dimethyl-4-quinolinyl)-6-(4-morpholinyl)-3,4-dihydro-2H-1,4-benzoxazine], the Ki was determined as 1260 nM. To `Cc1nc2ccc(Cl)cc2c(-n2ccc3c(C#N)cc(N4CCOCC4)cc32)c1C` [1-(6-chloro-2,3-dimethyl-4-quinolinyl)-6-(4-morpholinyl)-1H-indole-4-carbonitrile] belongs 153 nM; to `Cc1c(-c2cc(F)ccc2F)nc2cc(F)ccc2c1N1CC(C)(C)c2ccc(N3CCOCC3)cc21` [2-(2,5-difluorophenyl)-4-(3,3-dimethyl-6-(4-morpholinyl)-2,3-dihydro-1H-indol-1-yl)-7-fluoro-3-methylquinoline], 20.3 nM.
